Test results from PubChem BioAssay (NCI).
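Test compounds were applied to cells in 96-well plates for 48 hours at 5 doses. Here, GI50 denotes the concentration required for 50% inhibition of growth. TGI marks complete inhibition of growth.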

Columns and labels:
Assay in all cases: inhibition of tumour cell growth, NCI panel, 48 h; in the data active = GI50 below about 0.43 µM; inactive = the rest
MCF7 breast = system: MCF7 breast
UACC-257 melanoma = system: UACC-257 melanoma
SF-295 CNS = system: SF-295 CNS
HL-60(TB) leukemia = system: HL-60(TB) leukemia
HCT-116 colon = system: HCT-116 colon
SNB-19 CNS = system: SNB-19 CNS
IGROV1 ovarian = system: IGROV1 ovarian
SR leukemia = system: SR leukemia
HOP-62 NSCLC = system: HOP-62 NSCLC
DU-145 prostate = system: DU-145 prostate
U251 CNS = system: U251 CNS
A498 renal = system: A498 renal
COLO 205 colon = system: COLO 205 colon
KM12 colon = system: KM12 colon
NCI/ADR-RES ovarian = system: NCI/ADR-RES ovarian
EKVX NSCLC = system: EKVX NSCLC
MALME-3M melanoma = system: MALME-3M melanoma
RXF 393 renal = system: RXF 393 renal
NCI-H522 lung = system: NCI-H522 lung
M14 melanoma = system: M14 melanoma
CCRF-CEM leukemia = system: CCRF-CEM leukemia
NCI-H226 lung = system: NCI-H226 lung
K-562 leukemia = system: K-562 leukemia
RPMI-8226 leukemia = system: RPMI-8226 leukemia
SK-MEL-2 melanoma = system: SK-MEL-2 melanoma
UO-31 renal = system: UO-31 renal
SNB-75 CNS = system: SNB-75 CNS
CAKI-1 renal = system: CAKI-1 renal
786-0 renal = system: 786-0 renal
SF-539 CNS = system: SF-539 CNS
MDA-MB-231 breast = system: MDA-MB-231 breast
HCT-15 colon = system: HCT-15 colon
OVCAR-8 ovarian = system: OVCAR-8 ovarian
PC-3 prostate = system: PC-3 prostate
OVCAR-3 ovarian = system: OVCAR-3 ovarian
HOP-92 NSCLC = system: HOP-92 NSCLC
SK-OV-3 ovarian = system: SK-OV-3 ovarian
ACHN renal = system: ACHN renal
MDA-MB-435 = system: MDA-MB-435
MOLT-4 leukemia = system: MOLT-4 leukemia
OVCAR-5 ovarian = system: OVCAR-5 ovarian
SN12C renal = system: SN12C renal
SK-MEL-5 melanoma = system: SK-MEL-5 melanoma
HCC-2998 colon = system: HCC-2998 colon
NCI-H23 lung = system: NCI-H23 lung
TK-10 renal = system: TK-10 renal
BT-549 breast = system: BT-549 breast
SK-MEL-28 melanoma = system: SK-MEL-28 melanoma
NCI-H460 lung = system: NCI-H460 lung
UACC-62 melanoma = system: UACC-62 melanoma
OVCAR-4 ovarian = system: OVCAR-4 ovarian
HT29 colon = system: HT29 colon
SW-620 colon = system: SW-620 colon
T-47D breast = system: T-47D breast
A549 NSCLC = system: A549 NSCLC
LOX IMVI melanoma = system: LOX IMVI melanoma
HS 578T breast = system: HS 578T breast
SF-268 CNS = system: SF-268 CNS

O=C(Nc1ccc(Oc2cccc(Cl)c2)c(Cl)c1)c1cnccn1
28.2 µM: TGI (A498 renal)
> 32.8 µM: TGI (HOP-92 NSCLC)
8.95 µM: TGI (HL-60(TB) leukemia)
2.55 µM: TGI (NCI-H522 lung)
inactive: GI50 (UACC-257 melanoma) > 20 µM | GI50 (SF-295 CNS) 0.48 µM | GI50 (HL-60(TB) leukemia) 0.556 µM | GI50 (DU-145 prostate) 0.839 µM | GI50 (A498 renal) 5.85 µM | GI50 (EKVX NSCLC) 0.771 µM | GI50 (MALME-3M melanoma) 1.92 µM | GI50 (RXF 393 renal) 0.831 µM | GI50 (NCI-H226 lung) 1.73 µM | GI50 (UO-31 renal) 1.91 µM | GI50 (CAKI-1 renal) 0.844 µM | GI50 (786-0 renal) 2.16 µM | GI50 (MDA-MB-231 breast) 0.452 µM | GI50 (OVCAR-8 ovarian) 1.41 µM | GI50 (PC-3 prostate) 1.06 µM | GI50 (HOP-92 NSCLC) 0.673 µM | GI50 (SK-OV-3 ovarian) 11.5 µM | GI50 (ACHN renal) 3.63 µM | GI50 (OVCAR-5 ovarian) 1.6 µM | GI50 (SN12C renal) 2.56 µM | GI50 (HCC-2998 colon) 5.31 µM | GI50 (NCI-H23 lung) 0.903 µM | GI50 (TK-10 renal) 3.01 µM | GI50 (BT-549 breast) 3.31 µM | GI50 (SK-MEL-28 melanoma) 14.1 µM | GI50 (T-47D breast) 0.46 µM | GI50 (SF-268 CNS) 1.14 µM
> 50 µM: TGI (MCF7 breast) | TGI (UACC-257 melanoma) | TGI (HCT-116 colon) | TGI (SNB-19 CNS) | TGI (IGROV1 ovarian) | TGI (SR leukemia) | TGI (HOP-62 NSCLC) | TGI (DU-145 prostate) | TGI (KM12 colon) | TGI (EKVX NSCLC) | TGI (MALME-3M melanoma) | TGI (M14 melanoma) | TGI (CCRF-CEM leukemia) | TGI (K-562 leukemia) | TGI (RPMI-8226 leukemia) | TGI (SK-MEL-2 melanoma) | TGI (UO-31 renal) | TGI (CAKI-1 renal) | TGI (786-0 renal) | TGI (HCT-15 colon) | TGI (OVCAR-8 ovarian) | TGI (PC-3 prostate) | TGI (SK-OV-3 ovarian) | TGI (ACHN renal) | TGI (MOLT-4 leukemia) | TGI (OVCAR-5 ovarian) | TGI (SN12C renal) | TGI (SK-MEL-5 melanoma) | TGI (NCI-H23 lung) | TGI (TK-10 renal) | TGI (BT-549 breast) | TGI (SK-MEL-28 melanoma) | TGI (NCI-H460 lung) | TGI (UACC-62 melanoma) | TGI (OVCAR-4 ovarian) | TGI (SW-620 colon) | TGI (T-47D breast) | TGI (A549 NSCLC) | TGI (LOX IMVI melanoma) | TGI (HS 578T breast) | TGI (SF-268 CNS)
> 40 µM: TGI (MDA-MB-231 breast)
> 36 µM: TGI (HCC-2998 colon)
16.2 µM: TGI (COLO 205 colon)
> 22.9 µM: TGI (U251 CNS)
active: GI50 (MCF7 breast) 0.183 µM | GI50 (HCT-116 colon) 0.21 µM | GI50 (SNB-19 CNS) 0.338 µM | GI50 (IGROV1 ovarian) 0.363 µM | GI50 (SR leukemia) 0.145 µM | GI50 (HOP-62 NSCLC) 0.368 µM | GI50 (U251 CNS) 0.245 µM | GI50 (COLO 205 colon) 0.208 µM | GI50 (KM12 colon) 0.18 µM | GI50 (NCI/ADR-RES ovarian) 0.265 µM | GI50 (NCI-H522 lung) 0.296 µM | GI50 (M14 melanoma) 0.225 µM | GI50 (CCRF-CEM leukemia) 0.367 µM | GI50 (K-562 leukemia) 0.162 µM | GI50 (RPMI-8226 leukemia) 0.323 µM | GI50 (SK-MEL-2 melanoma) 0.352 µM | GI50 (SNB-75 CNS) 0.258 µM | GI50 (SF-539 CNS) 0.306 µM | GI50 (HCT-15 colon) 0.171 µM | GI50 (OVCAR-3 ovarian) 0.198 µM | GI50 (MDA-MB-435) 0.109 µM | GI50 (MOLT-4 leukemia) 0.371 µM | GI50 (SK-MEL-5 melanoma) 0.28 µM | GI50 (NCI-H460 lung) 0.245 µM | GI50 (UACC-62 melanoma) 0.345 µM | GI50 (HT29 colon) 0.168 µM | GI50 (SW-620 colon) 0.216 µM | GI50 (A549 NSCLC) 0.312 µM | GI50 (LOX IMVI melanoma) 0.275 µM | GI50 (HS 578T breast) 0.214 µM
> 20.3 µM: TGI (HT29 colon)
1.16 µM: TGI (OVCAR-3 ovarian)
0.29 µM: TGI (MDA-MB-435)
> 25.1 µM: TGI (SF-295 CNS)
> 29.8 µM: TGI (NCI-H226 lung)
1.72 µM: TGI (SF-539 CNS)
2.33 µM: TGI (SNB-75 CNS)
3.47 µM: TGI (RXF 393 renal)
> 11.8 µM: TGI (NCI/ADR-RES ovarian)
